Here are results for nine compounds from publication PMC3760808, “A New Approach to Control the Enigmatic Activity of Aldose Reductase” (PLoS ONE, 2013).

Assay [1] addresses T1, purified bovine lens AR (Bos taurus, UniProt P16116).
T1 construct: AR was purified from bovine lens to electrophoretic homogeneity as described; from tissue; host or cells: bovine lens
The assay is described as follows: AR inhibition screening with GAL and HNE as substrates (differential inhibition). The assay is classed as biochemical. To be noted: for inhibitory action on all the tested substrates (in words): substrates GAL, HNE, glucose (and GS-HNE), Figure 4; for GAL/HNE differential inhibition (percentage inhibition with GAL minus percentage inhibition with HNE): 0.11 mM GAL vs 0.11 mM HNE, at inhibitor concentration giving 50% inhibition or maximal concentration tested. How it is done: (§1) If not otherwise specified AR activity was determined at 37°C using 4.7 mM D, L-GAL as a substrate in 0.25 M sodium phosphate buffer pH 6.8 containing 0.38 M ammonium sulfate, 0.5 mM EDTA, and 0.2 mM NADPH. AR was purified from bovine lens to electrophoretic homogeneity as described. […] One unit of enzyme activity is the amount of enzyme that catalyzes the oxidation of 1 µmol of NADPH/min under the above-mentioned conditions. The k cat values were obtained on the basis of a molecular weight of AR of 34 KDa. The purified enzyme was stored at 4°C in a 10 mM sodium phosphate buffer pH 7.0 supplemented by 2 mM dithiothreitol and was extensively dialyzed against a 10 mM sodium phosphate buffer pH 7.0 before use.
The nominal concentrations of HNE and GS-HNE solutions used as substrates of AR were determined through a colorimetric assay. […] When testing inhibitors that require DMSO to be solubilized, the same concentration of DMSO (0.7% v/v), was used in the assays both in the presence and absence of the inhibitors.
Thus, the susceptibility of AR to the inhibition exerted by a series of compounds (including some well-known ARIs) was tested at various inhibitor concentrations, using both GAL and HNE as substrates. The results of this screening (Figure 2) are expressed as ”GAL/HNE differential inhibition”, i.e. the difference between the percentage inhibition observed using GAL as a substrate and the percentage inhibition observed using HNE as a substrate. This differential inhibition was calculated at the concentration of the inhibitor leading to 50% inhibition or, when 50% inhibition was not reached, at the maximal concentration tested.
Bars indicate the difference between the percentage inhibition observed using 0.11 mM GAL as substrate and the percentage inhibition using 0.11 mM HNE (differential inhibition). The difference was calculated at the concentration of the inhibitor leading to a 50% inhibition of the reaction more sensitive to the inhibitor (i.e. the reduction of GAL for compounds displaying a positive differential inhibition and the reduction HNE for compounds displaying a negative differential inhibition) or at the maximal concentration tested if 50% inhibition was not reached. […] Framed numbers (1 to 30) refer to the compounds tested as inhibitors.

Assay [2] concerns the target T1, purified bovine lens AR. Description: AR inhibition with GS-HNE as substrate. The format is biochemical. As for the experimental part: If not otherwise specified AR activity was determined at 37°C using 4.7 mM D, L-GAL as a substrate in 0.25 M sodium phosphate buffer pH 6.8 containing 0.38 M ammonium sulfate, 0.5 mM EDTA, and 0.2 mM NADPH. AR was purified from bovine lens to electrophoretic homogeneity as described. […] One unit of enzyme activity is the amount of enzyme that catalyzes the oxidation of 1 µmol of NADPH/min under the above-mentioned conditions. The k cat values were obtained on the basis of a molecular weight of AR of 34 KDa. […]
The nominal concentrations of HNE and GS-HNE solutions used as substrates of AR were determined through a colorimetric assay. These values were confirmed by the total decrease in absorbance at 340 nm measured, in the presence of 0.2 mM NADPH, when HNE and GS-HNE were incubated in the presence of 8 and 150 mU of AR, respectively (Figure S1). […]
Figure 3 Effect of D-glyceramide as differential AR inhibitor. Percentage residual activity was determined at various inhibitor concentrations using the following substrates: 0.11 mM of HNE (squares), GAL (diamonds), GS-HNE (circles) or 7 mM D-glucose (triangles). […]
Figure 5 Effect of compounds acting as differential AR inhibitors. Percentage residual activity was determined at various inhibitor concentrations using the following substrates: 0.11 mM HNE (squares), GAL (diamonds), GS-HNE (circles) or 7 mM D-glucose (triangles). […]

For assay [3], the target named is T1, purified bovine lens AR. The assay is described as follows: AR inhibition with D-glucose as substrate. The assay is classed as biochemical. How it is done:
as §1
(§2) The nominal concentrations of HNE and GS-HNE solutions used as substrates of AR were determined through a colorimetric assay. These values were confirmed by the total decrease in absorbance at 340 nm measured, in the presence of 0.2 mM NADPH, when HNE and GS-HNE were incubated in the presence of 8 and 150 mU of AR, respectively (Figure S1). When testing inhibitors that require DMSO to be solubilized, the same concentration of DMSO (0.7% v/v), was used in the assays both in the presence and absence of the inhibitors.
Figure 3 Effect of D-glyceramide as differential AR inhibitor. Percentage residual activity was determined at various inhibitor concentrations using the following substrates: 0.11 mM of HNE (squares), GAL (diamonds), GS-HNE (circles) or 7 mM D-glucose (triangles). Error bars represent the standard deviations from at least three independent measurements.
Figure 5 Effect of compounds acting as differential AR inhibitors. Percentage residual activity was determined at various inhibitor concentrations using the following substrates: 0.11 mM HNE (squares), GAL (diamonds), GS-HNE (circles) or 7 mM D-glucose (triangles). Panels a and b refer to compounds 18 and 19, respectively. Error bars represent the standard deviations from at least three completely independent measurements including different enzyme preparations. […]

The target of the next assay is T2, bovine lens AR (Bos taurus, UniProt P16116).
T2 construct: AR was purified from bovine lens to electrophoretic homogeneity as described; from tissue; host or cells: bovine lens
The assay is described as follows: Kinetic parameters of substrate reduction by AR (double reciprocal plots). The format is biochemical. The note with it: 8 mU purified AR, pH 6.8, 37°C. As for the experimental part:
as §1, §2
Figure 1 Double reciprocal plots for reduction of GAL, HNE and GS-HNE by bovine lens AR. Double reciprocal plots of initial rate measurements using of GAL (diamonds), HNE (squares) and GS-HNE (circles) as substrates. The assays were performed in standard conditions using 8 mU of purified AR. Error bars represent the standard deviations from at least three independent measurements.

The next assay concerns human skeletal muscle AR. More on the design: method as in PMID 9890881, PMID 7599164. To be noted: human skeletal muscle enzyme; cited from earlier work.
Assay [4] relates to human placental recombinant AR. More on the design: method as in PMID 9890881, PMID 7599164. To be noted: human placental recombinant enzyme; cited from earlier work.
The subject of a further assay is AR from bovine lens. More on the design: method as in PMID 8554593, PMID 9445372. To be noted: pH 6.0; cited from earlier work.
A further assay deals with AR from bovine heart. More on the design: method as in PMID 8554593, PMID 9445372. The note with it: pH 6.0; cited from earlier work.

As usually defined, the IC50 is the concentration that gives 50% inhibition. One may read the Km as the concentration of substrate that gives half-maximal velocity.

Structures are written as SMILES.

For the compound `O=c1cc(-c2ccccc2)nc2cccc(O)n12` [Compound 3], the “inhibitory action on all the tested substrates (in words)” value against purified bovine lens AR [1] is reported as “inhibits the AR catalyzed reduction of all the tested substrates”.

As to `O=C(O)c1cn(Cc2ccccc2)c2ccnn2c1=O` [Compound 18], the “inhibition of the AR catalyzed reduction of GS-HNE (in words)” value at purified bovine lens AR [2] (0.11 mM GS-HNE, Figure 5) is “able to inhibit, to a different extent”. Moreover, the “type of inhibition, glucose reduction” value at purified bovine lens AR [3] (47 µM inhibitor, double reciprocal plots) was “competitive inhibition”.

For `NC(=O)[C@H](O)CO` [Compound 21, D-Glyceramide], the IC50 at purified bovine lens AR [1] (GAL as substrate, read-out: IC50 with GAL as substrate) is approximately 10 mM; at purified bovine lens AR [2] (0.11 mM GS-HNE as substrate, read-out: IC50, reduction of GS-HNE), approximately 8 mM. Further, the “differential inhibition glucose/HNE (in words)” value on purified bovine lens AR [3] (7 mM D-glucose vs 0.11 mM HNE, Figure 3) is on record as “observed only at rather high concentrations”.

Turning to `NC(=O)[C@H](O)[C@@H](O)[C@H](O)[C@H](O)CO` [Compound 26, D gluconamide, reference compound], the “GAL/HNE differential inhibition (percentage inhibition with GAL minus percentage inhibition with HNE)” value at purified bovine lens AR [1] was “significant”. Also, the “effect on glucose reduction” value on purified bovine lens AR [3] (data not shown) is listed as “no effect”.

As for `O=C1NC(=O)[C@@]2(CCOc3ccc(F)cc32)N1` [Compound 29, Sorbinil], at purified bovine lens AR [1], the “GAL/HNE differential inhibition (percentage inhibition with GAL minus percentage inhibition with HNE)” value was “negligible” and the “inhibitory action on all the tested substrates (in words)” value is recorded as “potent inhibitory action on all the tested substrates”.

The compound `CC(/C=C1\SC(=S)N(CC(=O)O)C1=O)=C\c1ccccc1` [Compound 30, Epalrestat] yielded an IC50 at purified bovine lens AR [1] of 0.0005 mM.

With `O=C[C@@H](O)CO` [GAL, D, L-glyceraldehyde], on bovine lens AR, the Km was determined as 39 ± 4 µM and the k cat was found to be 0.783 ± 0.05 s⁻¹.

As for `CCCCCC(O)C(CC=O)SC[C@H](NC(=O)CC[C@H](N)C(=O)O)C(=O)NCC(=O)O` (stereo partly drawn) [GS-HNE, 3-glutathionyl-4-hydroxy-nonanal], at bovine lens AR, the Km turned out to be 105 ± 6 µM and the k cat worked out at 0.683 ± 0.033 s⁻¹.

Regarding `CCCCCC(O)/C=C/C=O` (stereo not drawn) [HNE, 4-hydroxy-2,3-nonenal], the Michaelis-Menten constant (Km) at bovine lens AR was 37 ± 1 µM; in the assay with human skeletal muscle AR, 22 µM; in assay [4], 28 ± 9 µM; in the assay with AR from bovine lens, 8.8 ± 0.9 µM; in the assay with AR from bovine heart, 7 ± 2 µM. The k cat at bovine lens AR was determined as 0.8 ± 0.017 s⁻¹.
